Results taken from PMC6172315, “Relative Selectivity of Plant Cardenolides for Na^+/K^+-ATPases From the Monarch Butterfly and Non-resistant Insects” (Frontiers in Plant Science, 2018).
“Also recorded” adds a separate entry of the source.

Legend:
[1] = design: method as in Imai et al., 1965; conditions: ref Imai et al., 1965; cited from earlier work
[2] = target: S. gregaria-Na^+/K^+-ATPase (Schistocerca gregaria, UniProt A0A8E5JSN5); type: biochemical; conditions: Supplementary Figure 2
Procedure: (§1) Danaus plexippus was caught in the field or purchased; E. core and S. gregaria were obtained commercially, with additional E. core from a laboratory colony. […] Briefly, brains dissected from butterflies stored at -80°C or recta from locusts were homogenized (individually or pooled) with an all glass grinder (Wheaton) in deionized water, frozen at -80°C, freeze-dried, and stored frozen until use. For in vitro assays, lyophilisates were dissolved in water, sonicated in an ultrasonic bath, and centrifuged to remove undissolved matter. All cardiac glycosides were tested at least with three biological replicates of Na^+/K^+-ATPase (i.e., Na^+/K^+-ATPase from genetically different specimens or pools of specimens).
(§2) Means of duplicate determinations (i.e., technical replicates) were used as data points. In consequence, each data point of a dose–response curve is the mean of at least three biological replicates based on two technical replicates, each. […] Here, technical replicates collected on the same 96-well plate were averaged and used as data points.
(§3) Stock solutions of cardiac glycosides, as well as pregnane glycosides, were prepared from crystalline compounds in DMSO. While concentrations of all other compounds were based on mass, calactin, and calotropin stock solutions were adjusted with HPLC using digitoxin as a reference.
(§4) Pairwise statistical comparisons of dose-response curves were carried out using the “compare datasets” option in OriginPro, which is based on an F-Test evaluating if the two curves are identical. Correlation analyses using log10-transformed IC50 values was also carried out with OriginPro. […] To analyze relative selectivity without a reference, we also plotted the fold differences between the IC50 values of individual cardenolides for non-adapted and adapted insect Na^+/K^+-ATPase and compared them to mammalian (lamb) Na^+/K^+-ATPase (Figure 2).

E. core-Na^+/K^+-ATPase = E. core-Na^+/K^+-ATPase (Euploea core, UniProt A0A5C0C9F5); experiment: In vitro inhibition assay of E. core Na+/K+-ATPase (phosphate release); type: biochemical
Procedure: as §1, §2, §3, §4

physchem = experiment: physchem
Procedure: as §3

[3] = target: D. plexippus-Na^+/K^+-ATPase (Danaus plexippus, UniProt K0G7C4); experiment: In vitro inhibition assay of D. plexippus Na+/K+-ATPase (phosphate release); type: biochemical
Procedure: as §1, §2, §3, §4

[4] = both dissolved in 25% DMSO, F-test of curves

Sequence of E. core-Na^+/K^+-ATPase (A0A5C0C9F5 1-1013): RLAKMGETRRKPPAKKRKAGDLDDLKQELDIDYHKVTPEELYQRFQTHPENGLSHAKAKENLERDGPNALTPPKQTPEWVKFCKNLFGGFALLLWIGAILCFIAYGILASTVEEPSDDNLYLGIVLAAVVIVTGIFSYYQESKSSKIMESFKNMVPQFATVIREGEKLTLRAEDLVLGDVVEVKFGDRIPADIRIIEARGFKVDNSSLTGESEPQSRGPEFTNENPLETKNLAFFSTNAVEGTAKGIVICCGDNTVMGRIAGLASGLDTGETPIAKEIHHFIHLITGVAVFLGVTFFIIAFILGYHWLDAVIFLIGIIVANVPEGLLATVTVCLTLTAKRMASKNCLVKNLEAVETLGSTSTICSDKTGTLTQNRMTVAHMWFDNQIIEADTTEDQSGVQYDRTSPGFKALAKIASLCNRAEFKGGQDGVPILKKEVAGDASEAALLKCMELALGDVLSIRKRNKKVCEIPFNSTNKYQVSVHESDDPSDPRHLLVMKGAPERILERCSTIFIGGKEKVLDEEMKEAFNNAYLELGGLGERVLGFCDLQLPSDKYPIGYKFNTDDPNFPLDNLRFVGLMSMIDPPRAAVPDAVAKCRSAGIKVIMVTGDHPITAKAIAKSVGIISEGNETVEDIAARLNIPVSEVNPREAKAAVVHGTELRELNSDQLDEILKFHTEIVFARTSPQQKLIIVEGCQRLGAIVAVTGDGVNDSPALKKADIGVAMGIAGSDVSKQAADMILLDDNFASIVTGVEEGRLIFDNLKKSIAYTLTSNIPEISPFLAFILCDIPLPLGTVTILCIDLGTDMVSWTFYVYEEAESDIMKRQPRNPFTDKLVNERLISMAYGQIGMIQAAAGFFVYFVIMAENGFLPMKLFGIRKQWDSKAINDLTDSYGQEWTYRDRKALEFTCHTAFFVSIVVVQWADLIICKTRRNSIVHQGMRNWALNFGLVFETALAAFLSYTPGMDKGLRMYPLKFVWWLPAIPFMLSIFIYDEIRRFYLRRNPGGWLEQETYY
Sequence of D. plexippus-Na^+/K^+-ATPase (K0G7C4 1-1009): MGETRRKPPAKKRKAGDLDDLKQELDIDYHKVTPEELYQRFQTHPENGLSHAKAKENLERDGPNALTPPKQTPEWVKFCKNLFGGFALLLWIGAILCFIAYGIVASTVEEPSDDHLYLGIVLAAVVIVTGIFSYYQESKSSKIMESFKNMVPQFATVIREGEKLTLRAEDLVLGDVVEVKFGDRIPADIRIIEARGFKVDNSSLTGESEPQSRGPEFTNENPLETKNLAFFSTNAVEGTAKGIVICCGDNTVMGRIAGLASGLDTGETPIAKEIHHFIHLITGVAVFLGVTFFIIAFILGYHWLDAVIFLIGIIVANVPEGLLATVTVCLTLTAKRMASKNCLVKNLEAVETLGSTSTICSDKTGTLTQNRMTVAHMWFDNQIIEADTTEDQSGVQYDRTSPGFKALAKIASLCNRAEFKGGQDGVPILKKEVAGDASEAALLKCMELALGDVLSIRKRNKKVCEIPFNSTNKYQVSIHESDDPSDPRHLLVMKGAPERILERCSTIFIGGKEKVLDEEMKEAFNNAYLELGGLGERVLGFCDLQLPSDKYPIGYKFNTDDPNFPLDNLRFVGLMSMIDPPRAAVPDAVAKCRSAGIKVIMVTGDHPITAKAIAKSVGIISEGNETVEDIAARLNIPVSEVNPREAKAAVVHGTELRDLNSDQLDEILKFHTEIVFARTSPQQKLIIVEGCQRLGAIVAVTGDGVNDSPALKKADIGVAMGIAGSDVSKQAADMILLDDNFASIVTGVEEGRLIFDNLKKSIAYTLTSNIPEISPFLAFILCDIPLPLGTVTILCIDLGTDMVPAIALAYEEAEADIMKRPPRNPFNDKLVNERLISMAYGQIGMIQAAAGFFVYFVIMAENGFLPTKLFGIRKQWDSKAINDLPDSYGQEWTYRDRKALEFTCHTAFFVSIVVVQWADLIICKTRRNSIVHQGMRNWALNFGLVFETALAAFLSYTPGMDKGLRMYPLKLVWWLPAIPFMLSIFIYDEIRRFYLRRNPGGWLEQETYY
Sequence of S. gregaria-Na^+/K^+-ATPase (A0A8E5JSN5 1-1039): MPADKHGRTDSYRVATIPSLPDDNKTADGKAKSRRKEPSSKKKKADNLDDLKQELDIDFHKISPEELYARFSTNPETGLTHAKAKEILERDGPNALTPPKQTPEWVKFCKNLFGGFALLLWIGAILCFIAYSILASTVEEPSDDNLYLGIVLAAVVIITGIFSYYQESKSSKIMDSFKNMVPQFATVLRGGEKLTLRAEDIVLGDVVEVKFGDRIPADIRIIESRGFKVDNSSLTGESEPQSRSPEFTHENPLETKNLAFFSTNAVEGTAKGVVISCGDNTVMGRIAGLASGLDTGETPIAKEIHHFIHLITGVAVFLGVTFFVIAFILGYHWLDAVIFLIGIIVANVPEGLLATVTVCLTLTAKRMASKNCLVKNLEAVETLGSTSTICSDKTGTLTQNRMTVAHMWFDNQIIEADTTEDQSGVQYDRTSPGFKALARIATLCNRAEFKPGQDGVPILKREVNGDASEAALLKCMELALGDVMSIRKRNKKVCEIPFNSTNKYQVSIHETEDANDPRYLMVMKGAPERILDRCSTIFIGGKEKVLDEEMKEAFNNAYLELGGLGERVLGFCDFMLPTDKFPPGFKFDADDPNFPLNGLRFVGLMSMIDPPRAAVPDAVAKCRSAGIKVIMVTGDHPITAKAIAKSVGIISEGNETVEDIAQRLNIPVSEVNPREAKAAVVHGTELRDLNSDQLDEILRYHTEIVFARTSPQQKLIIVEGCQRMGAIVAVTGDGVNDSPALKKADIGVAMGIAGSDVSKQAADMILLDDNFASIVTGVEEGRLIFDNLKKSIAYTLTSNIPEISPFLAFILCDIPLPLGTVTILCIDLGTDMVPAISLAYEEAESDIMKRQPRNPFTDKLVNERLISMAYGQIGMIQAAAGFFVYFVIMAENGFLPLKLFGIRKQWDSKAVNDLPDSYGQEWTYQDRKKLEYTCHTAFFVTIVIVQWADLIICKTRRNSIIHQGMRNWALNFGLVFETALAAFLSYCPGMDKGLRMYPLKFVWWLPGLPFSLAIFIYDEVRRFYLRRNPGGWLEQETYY

Compound: CO[C@@H]1C[C@H](O[C@H]2CC[C@@]3(C)[C@H](CC[C@@]45O[C@@]46CC[C@H](C4=CC(=O)OC4)[C@@]6(C)CC[C@H]35)C2)O[C@H](C)[C@@H]1O [adynerin]
- cardiotonic activity in vertebrates [1]: lack cardiotonic activity
- inhibition of S. gregaria-Na^+/K^+-ATPase (in words) [2]: lack of inhibition; also recorded: failed to inhibit

Compound: CC12CCC(O)CC1CCC1C2CCC2(C)C(C3=CC(=O)OC3)CCC12O (stereo not shown) [uzarigenin]
- inhibition of E. core Na^+/K^+-ATPase compared to ouabain (E. core-Na^+/K^+-ATPase; EC, F-test comparison of entire dose-response curves with ouabain): < ouabain; F2,6 = 53.30, p < 0.001
- inhibition of E. core Na^+/K^+-ATPase compared to 5β equivalent digitoxigenin (E. core-Na^+/K^+-ATPase; [4]): no difference
- IC50 (E. core-Na^+/K^+-ATPase; read-out: IC50 E. core- Na^+/K^+-ATPase, Na+/K+-ATPase extracted from butterfly brains): 4.58 µM
- solubility compared to 5-β-isomer digitoxigenin (physchem; ambient conditions): at least three to four times lower; also recorded: strongly reduced
- solubility (physchem; aqueous with cosolvent or surfactant or cyclodextrin, kinetic from dmso stock): < 100 µM
- inhibition of D. plexippus Na^+/K^+-ATPase compared to ouabain ([3]; DP, F-test comparison of entire dose-response curves with ouabain): > ouabain; F2,6 = 5.73, p = 0.04
- inhibition of D. plexippus Na^+/K^+-ATPase compared to 5β equivalent digitoxigenin [3, 4]: no difference
- IC50 ([3]; read-out: IC50 D. plexippus- Na^+/K^+-ATPase, Na+/K+-ATPase extracted from butterfly brains): 16 µM
